Results as given in patent US20230060820A1, “OCTENIDINE SALT ANTIMICROBIAL MEDICAL ARTICLES” (3M INNOVATIVE PROPERTIES COMPANY, priority 2019, published 2023).
Counter-ions that a name gives are not always drawn. Like-named read-outs stand apart in the source and are kept apart here.

What was measured:
[1] = higher than chlorhexidine; cited from earlier work
[2] = cited from earlier work; for Solubility: previous reports
[3] = Solubilization of octenidine hydrochloride in solvents (homogeneous solution); assay type: physicochemical; details: for Homogeneous solution: 10% (w/w), room temperature 20-25° C.
Experimental: Previous reports have shown that octenidine hydrochloride is soluble in both propylene glycol and ethylhexylglycerine, both of which are diol solvents. Hydrogen-bonding solvents with different functionalities were tested for their ability to solvate octenidine hydrochloride. Each solvent was combined with octenidine hydrochloride at 10% (w/w) with mixing at room temperature, i.e., 20-25° C. In some cases, sonication and/or heat were added to hasten dissolution.

## CCCCCCCCN=c1ccn(CCCCCCCCCCn2ccc(=NCCCCCCCC)cc2)cc1 [octenidine hydrochloride, Octenidine hydrochloride]
[1]
  Antimicrobial efficacy relative to chlorhexidine: 3-10 times
[2]; in ethylhexylglycerine
  Solubility: soluble
[2]; in propylene glycol
  Solubility: soluble
[3]; in 2-octyldodecanol
  Homogeneous solution: No
[3]; in glycerol monocaprylate
  Homogeneous solution: Yes
[3]; in glycerol monoisostearate
  Homogeneous solution: Yes
[3]; in glycol fatty monoesters
  Solubility: soluble
[3]; in lauramide diethanolamine
  Homogeneous solution: Yes
[3]; in methoxyisopropanol
  Homogeneous solution: Yes
[3]; in propylene glycol dicaprylate/caprate
  Homogeneous solution: No
[3]; in propylene glycol monoheptanoate
  Homogeneous solution: Yes
[3]; in propylene glycol monolaurate
  Homogeneous solution: Yes
[3]; in propylene glycol
  Homogeneous solution: Yes
[3]; in the glycol fatty diester
  Solubility: insoluble
[3]; in the monohydric alcohol
  Solubility: insoluble

## N=C(NCCCCCCNC(=N)NC(=N)Nc1ccc(Cl)cc1)NC(=N)Nc1ccc(Cl)cc1.O=C(O)[C@H](O)[C@@H](O)[C@H](O)[C@H](O)CO.O=C(O)[C@H](O)[C@@H](O)[C@H](O)[C@H](O)CO [chlorhexidine gluconate, Chlorhexidine digluconate]
[2]; in glycol fatty monoesters, known
  Homogenous solution formation: do not form homogenous solutions
